Values belong to the compound of their own block, whether it stands above or below them.
How the values were obtained:
[1] = target: NT-3 growth factor receptor (Homo sapiens, UniProt Q16288); assay: Selectivity interaction (Kinase panel (Z-LYTE Assay)) EUB0001632a NTRK3; conditions: at 10 µM
[2] = target: T1, Mitogen-activated protein kinase kinase kinase 12 (Homo sapiens) (UniProt Q12852); assay: Selectivity interaction (KinomeScan (DiscoverX)) EUB0000666a MAP3K12; conditions: at 10 µM
T1 sequence (whole entry): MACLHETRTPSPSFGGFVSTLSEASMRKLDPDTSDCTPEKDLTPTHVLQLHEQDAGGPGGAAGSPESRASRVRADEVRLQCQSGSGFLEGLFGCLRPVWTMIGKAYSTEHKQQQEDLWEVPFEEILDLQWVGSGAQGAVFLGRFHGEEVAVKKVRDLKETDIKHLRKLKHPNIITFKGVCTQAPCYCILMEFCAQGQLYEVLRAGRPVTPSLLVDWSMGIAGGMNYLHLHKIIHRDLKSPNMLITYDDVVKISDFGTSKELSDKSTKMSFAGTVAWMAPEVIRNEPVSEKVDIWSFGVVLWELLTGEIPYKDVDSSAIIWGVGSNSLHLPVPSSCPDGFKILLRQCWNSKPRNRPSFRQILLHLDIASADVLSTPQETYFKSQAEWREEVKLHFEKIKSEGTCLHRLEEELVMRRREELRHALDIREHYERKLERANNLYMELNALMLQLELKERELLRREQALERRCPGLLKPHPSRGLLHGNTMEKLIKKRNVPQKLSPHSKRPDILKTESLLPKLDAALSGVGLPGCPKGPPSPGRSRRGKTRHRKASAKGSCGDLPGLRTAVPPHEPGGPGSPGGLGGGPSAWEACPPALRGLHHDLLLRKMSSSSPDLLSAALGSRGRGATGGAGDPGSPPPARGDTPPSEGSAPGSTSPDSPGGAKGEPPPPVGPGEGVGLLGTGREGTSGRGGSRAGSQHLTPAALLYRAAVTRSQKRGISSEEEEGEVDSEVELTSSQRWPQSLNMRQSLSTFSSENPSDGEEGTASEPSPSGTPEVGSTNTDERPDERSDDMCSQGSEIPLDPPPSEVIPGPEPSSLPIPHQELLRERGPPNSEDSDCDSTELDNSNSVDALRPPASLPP

[3] = target: T2, Ephrin type-B receptor 2 (Homo sapiens) (UniProt P29323); assay: Selectivity interaction (Upstate Kinase Profiler service (Millipore)) EUB0000056c EPHB2; conditions: at 1 µM
T2 sequence (whole entry): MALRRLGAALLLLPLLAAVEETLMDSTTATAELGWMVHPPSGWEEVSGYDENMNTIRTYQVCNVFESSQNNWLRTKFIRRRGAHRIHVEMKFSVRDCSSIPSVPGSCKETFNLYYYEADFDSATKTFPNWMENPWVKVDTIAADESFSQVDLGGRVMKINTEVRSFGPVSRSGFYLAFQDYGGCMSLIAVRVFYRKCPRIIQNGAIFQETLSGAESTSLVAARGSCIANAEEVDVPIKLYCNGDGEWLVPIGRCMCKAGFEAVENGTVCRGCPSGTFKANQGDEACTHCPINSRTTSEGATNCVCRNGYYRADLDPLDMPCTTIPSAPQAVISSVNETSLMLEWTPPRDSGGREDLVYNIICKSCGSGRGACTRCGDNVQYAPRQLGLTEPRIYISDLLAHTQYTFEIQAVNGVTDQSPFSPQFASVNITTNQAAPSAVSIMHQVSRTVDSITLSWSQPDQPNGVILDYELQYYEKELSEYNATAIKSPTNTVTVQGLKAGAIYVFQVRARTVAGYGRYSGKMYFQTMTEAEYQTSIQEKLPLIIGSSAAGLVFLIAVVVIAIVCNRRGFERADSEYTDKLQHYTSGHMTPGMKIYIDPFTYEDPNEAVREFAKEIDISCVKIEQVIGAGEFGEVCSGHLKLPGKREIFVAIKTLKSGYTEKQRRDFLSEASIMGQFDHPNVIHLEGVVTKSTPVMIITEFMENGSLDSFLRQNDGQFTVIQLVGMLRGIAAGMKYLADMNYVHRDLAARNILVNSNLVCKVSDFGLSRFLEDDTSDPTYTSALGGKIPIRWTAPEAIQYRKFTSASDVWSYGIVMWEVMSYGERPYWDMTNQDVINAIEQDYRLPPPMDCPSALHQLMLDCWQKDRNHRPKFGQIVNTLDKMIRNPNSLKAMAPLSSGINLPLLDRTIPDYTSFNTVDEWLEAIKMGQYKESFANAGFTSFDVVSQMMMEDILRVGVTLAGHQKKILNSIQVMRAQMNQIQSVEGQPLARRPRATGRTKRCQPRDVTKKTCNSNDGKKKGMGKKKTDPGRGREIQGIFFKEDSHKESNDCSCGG

[4] = target: Activin receptor type-2B (Homo sapiens) (UniProt Q13705); assay: Selectivity interaction (ProQinase) EUB0000171b ACVR2B
[5] = target: Calcium/calmodulin-dependent protein kinase type II subunit delta (Homo sapiens) (UniProt Q13557); assay: Selectivity interaction (KinomeScan (DiscoverX)) EUB0001049a CAMK2D; conditions: at 1 µM
[6] = target: Serine/threonine-protein kinase 24 (Homo sapiens) (UniProt Q9Y6E0); assay: Selectivity interaction (KinomeScan (DiscoverX)) EUB0001049a STK24; conditions: at 1 µM
[7] = target: Serine/threonine-protein kinase Nek4 (Homo sapiens) (UniProt P51957); assay: Selectivity interaction (KinomeScan (DiscoverX)) EUB0000045b NEK4
[8] = target: DNA (cytosine-5)-methyltransferase 3A (Homo sapiens) (UniProt Q9Y6K1); assay: Selectivity interaction (PWWP, WD40, and Tudor domain panel (DSLS measurements, literature)) EUB0000270b DNMT3A
[9] = target: Protein kinase C delta type (Homo sapiens) (UniProt Q05655); assay: Selectivity interaction (KinomeScan (DiscoverX)) EUB0000618a PRKCD; conditions: at 10 µM
Sequence of Protein kinase C delta type (Homo sapiens) (Q05655 whole entry, looked up): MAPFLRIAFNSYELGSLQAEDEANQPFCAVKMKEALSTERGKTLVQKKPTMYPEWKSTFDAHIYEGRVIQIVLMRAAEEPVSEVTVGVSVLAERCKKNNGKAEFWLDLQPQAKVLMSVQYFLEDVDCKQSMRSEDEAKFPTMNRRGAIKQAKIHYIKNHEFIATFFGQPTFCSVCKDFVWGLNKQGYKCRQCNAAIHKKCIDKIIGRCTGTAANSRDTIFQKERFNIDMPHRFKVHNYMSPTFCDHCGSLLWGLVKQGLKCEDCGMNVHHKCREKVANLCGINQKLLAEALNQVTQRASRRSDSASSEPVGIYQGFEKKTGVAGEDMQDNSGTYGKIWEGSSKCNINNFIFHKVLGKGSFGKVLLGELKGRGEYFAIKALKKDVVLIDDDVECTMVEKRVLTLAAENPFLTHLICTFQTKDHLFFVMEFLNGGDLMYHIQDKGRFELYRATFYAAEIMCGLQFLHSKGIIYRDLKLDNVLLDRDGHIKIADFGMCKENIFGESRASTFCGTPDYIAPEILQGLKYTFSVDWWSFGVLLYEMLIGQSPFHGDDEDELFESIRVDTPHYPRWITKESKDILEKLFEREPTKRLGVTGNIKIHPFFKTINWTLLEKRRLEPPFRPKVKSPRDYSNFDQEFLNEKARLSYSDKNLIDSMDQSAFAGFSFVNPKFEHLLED

Sequence of Serine/threonine-protein kinase Nek4 (Homo sapiens) (P51957 whole entry, looked up, the tested form may be a part): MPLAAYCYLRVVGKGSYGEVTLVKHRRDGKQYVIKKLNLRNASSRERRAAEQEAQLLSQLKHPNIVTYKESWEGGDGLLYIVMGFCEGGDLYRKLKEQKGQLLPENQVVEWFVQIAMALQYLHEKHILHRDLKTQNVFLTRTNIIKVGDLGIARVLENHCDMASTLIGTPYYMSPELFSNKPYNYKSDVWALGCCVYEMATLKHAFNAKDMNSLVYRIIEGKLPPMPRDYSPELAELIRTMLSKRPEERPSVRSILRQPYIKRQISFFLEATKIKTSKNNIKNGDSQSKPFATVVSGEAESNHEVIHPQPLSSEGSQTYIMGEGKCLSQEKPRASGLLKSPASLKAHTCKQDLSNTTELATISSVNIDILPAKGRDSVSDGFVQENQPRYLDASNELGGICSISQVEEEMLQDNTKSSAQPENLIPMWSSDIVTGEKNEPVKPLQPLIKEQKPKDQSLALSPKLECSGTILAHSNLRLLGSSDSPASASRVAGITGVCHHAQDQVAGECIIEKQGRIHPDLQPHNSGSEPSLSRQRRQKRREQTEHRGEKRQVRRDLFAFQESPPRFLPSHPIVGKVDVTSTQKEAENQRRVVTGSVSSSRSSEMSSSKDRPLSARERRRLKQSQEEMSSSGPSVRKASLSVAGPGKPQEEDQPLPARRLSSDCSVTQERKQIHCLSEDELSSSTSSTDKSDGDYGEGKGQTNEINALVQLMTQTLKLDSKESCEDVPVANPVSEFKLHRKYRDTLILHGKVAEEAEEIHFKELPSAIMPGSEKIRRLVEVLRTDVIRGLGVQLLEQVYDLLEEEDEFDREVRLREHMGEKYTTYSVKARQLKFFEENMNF
Sequence of Activin receptor type-2B (Homo sapiens) (Q13705 whole entry): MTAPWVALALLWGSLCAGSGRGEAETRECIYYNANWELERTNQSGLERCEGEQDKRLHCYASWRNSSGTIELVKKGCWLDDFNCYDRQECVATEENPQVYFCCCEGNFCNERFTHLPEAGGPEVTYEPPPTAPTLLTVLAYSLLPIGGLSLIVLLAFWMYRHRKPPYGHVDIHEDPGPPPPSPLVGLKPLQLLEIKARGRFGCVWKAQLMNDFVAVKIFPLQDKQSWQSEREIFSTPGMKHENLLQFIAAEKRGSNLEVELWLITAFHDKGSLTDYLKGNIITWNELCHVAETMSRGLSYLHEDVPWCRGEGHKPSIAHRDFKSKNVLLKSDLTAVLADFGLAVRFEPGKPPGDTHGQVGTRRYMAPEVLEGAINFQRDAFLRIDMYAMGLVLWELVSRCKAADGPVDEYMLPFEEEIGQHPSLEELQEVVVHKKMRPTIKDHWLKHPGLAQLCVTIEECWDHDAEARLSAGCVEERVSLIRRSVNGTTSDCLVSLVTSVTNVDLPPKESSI
Sequence of NT-3 growth factor receptor (Q16288 32-839 limits assumed): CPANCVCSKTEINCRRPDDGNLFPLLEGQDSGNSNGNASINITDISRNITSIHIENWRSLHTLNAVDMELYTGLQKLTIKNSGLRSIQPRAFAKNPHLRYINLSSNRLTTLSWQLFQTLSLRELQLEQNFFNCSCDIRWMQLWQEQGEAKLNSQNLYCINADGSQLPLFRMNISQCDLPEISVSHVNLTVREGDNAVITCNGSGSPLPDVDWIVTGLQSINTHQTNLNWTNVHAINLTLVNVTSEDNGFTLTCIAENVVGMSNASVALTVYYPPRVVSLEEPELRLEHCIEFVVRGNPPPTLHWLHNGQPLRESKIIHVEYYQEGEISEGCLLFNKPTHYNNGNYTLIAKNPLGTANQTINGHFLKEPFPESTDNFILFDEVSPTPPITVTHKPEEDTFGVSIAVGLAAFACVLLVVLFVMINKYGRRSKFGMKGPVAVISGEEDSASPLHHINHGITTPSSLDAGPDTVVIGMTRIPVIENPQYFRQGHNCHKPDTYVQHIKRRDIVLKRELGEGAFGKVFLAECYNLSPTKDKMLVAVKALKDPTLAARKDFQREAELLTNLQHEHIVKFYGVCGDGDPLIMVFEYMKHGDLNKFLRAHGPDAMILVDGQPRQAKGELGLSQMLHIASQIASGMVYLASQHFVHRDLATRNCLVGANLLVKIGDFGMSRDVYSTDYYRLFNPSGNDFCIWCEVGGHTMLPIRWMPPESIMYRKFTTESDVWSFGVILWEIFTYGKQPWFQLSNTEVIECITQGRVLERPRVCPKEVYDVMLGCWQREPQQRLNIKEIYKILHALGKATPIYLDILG
Sequence of Calcium/calmodulin-dependent protein kinase type II subunit delta (Homo sapiens) (Q13557 whole entry): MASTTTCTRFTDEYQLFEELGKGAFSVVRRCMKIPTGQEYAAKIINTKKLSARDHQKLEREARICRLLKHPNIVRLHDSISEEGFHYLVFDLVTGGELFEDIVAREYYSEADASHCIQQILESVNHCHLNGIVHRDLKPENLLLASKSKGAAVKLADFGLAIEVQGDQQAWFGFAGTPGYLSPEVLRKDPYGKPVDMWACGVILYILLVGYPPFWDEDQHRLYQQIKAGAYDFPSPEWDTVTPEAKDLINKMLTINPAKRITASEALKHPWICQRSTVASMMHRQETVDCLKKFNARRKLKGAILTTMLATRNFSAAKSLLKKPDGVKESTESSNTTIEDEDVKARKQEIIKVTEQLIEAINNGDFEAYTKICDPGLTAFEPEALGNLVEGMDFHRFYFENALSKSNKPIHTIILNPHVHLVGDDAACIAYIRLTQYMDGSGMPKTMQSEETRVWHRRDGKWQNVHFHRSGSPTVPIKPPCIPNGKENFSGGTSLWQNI
Sequence of DNA (cytosine-5)-methyltransferase 3A (Homo sapiens) (Q9Y6K1 whole entry, looked up, the tested form may be a part): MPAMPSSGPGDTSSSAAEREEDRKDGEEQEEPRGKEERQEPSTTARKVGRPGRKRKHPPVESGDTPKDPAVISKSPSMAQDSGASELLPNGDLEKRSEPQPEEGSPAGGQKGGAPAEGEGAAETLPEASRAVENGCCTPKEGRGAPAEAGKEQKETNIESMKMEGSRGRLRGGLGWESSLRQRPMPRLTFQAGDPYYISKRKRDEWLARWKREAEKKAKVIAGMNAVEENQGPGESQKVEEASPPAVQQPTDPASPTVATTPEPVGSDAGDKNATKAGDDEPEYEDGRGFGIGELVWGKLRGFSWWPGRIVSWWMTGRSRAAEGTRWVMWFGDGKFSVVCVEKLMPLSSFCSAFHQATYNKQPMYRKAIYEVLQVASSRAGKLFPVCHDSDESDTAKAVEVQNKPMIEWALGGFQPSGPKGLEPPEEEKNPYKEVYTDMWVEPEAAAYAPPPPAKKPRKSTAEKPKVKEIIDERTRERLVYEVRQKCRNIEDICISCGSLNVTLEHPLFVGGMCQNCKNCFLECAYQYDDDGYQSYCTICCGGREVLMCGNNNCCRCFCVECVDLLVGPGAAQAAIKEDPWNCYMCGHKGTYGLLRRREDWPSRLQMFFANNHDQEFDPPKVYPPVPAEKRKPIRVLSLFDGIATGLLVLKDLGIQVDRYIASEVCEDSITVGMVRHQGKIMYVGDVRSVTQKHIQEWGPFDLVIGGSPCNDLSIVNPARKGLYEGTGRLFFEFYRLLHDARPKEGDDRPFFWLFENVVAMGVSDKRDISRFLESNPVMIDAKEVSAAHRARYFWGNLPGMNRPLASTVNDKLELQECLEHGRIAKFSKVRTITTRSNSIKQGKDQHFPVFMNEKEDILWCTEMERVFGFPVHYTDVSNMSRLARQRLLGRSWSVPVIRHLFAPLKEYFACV
Sequence of Serine/threonine-protein kinase 24 (Homo sapiens) (Q9Y6E0 whole entry, looked up): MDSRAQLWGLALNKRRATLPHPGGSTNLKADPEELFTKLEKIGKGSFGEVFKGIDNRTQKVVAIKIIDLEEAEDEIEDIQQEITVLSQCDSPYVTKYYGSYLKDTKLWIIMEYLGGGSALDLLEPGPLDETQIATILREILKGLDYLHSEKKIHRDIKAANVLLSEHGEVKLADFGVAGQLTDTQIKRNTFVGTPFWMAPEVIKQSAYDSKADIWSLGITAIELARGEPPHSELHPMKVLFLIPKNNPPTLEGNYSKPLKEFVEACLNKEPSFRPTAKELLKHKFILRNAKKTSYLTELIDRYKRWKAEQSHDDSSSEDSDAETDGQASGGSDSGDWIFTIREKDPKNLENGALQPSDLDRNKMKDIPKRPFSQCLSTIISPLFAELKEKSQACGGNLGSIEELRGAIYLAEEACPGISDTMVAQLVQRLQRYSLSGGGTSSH

% of control [1]: 19%
Compound: Cn1cc(-n2cnc3c(NCc4nc5cc(Cl)c(Cl)cc5[nH]4)nc(N4CCOCC4)nc32)cn1

Compound: O=C(NOC[C@H](O)CO)c1ccc(F)c(F)c1Nc1ccc(I)cc1F
% of control [2]: 78%

% of inhibition [3]: -14%
Compound: Cc1ccc(-c2ccc3c(ccc4sc5c(c43)NC[C@@H](C)NC5=O)n2)cn1

% of control ([4]; at 1 µM): 88%
% of control ([4]; at 5 µM): 68%
Compound: C=CC(=O)Nc1cccc(C(=O)Nc2ccc(Nc3cc(-c4[nH]c(SC)nc4C)ccn3)cc2)c1

Compound: COc1cc(Nc2nc(C)cc(-c3cnn4nc(OC)ccc34)n2)cc(C(F)(F)F)c1
% of control [5]: 100%
% of control [6]: 76%

Compound: C=CC(=O)Nc1cc(-n2c(=O)ccc3cnc4ccc(-c5ccc(NS(C)(=O)=O)cc5)cc4c32)ccc1C
% of control ([7]; at 1 µM): 81%
% of control ([7]; at 10 µM): 100%

dTagg [8]: -0.1 K
Compound: Cc1cc(CN)cc(C)c1-c1ncn(C)c1-c1cncn1C

Compound: O[C@H]1CC[C@H](Nc2ncc3nc(Nc4c(F)cc(F)cc4F)n([C@H]4CCOC4)c3n2)CC1
% of control [9]: 93%

Reference: ChEMBL document CHEMBL5465560, “Selectivity Literature for EUbOPEN Chemogenomic Library” (2024)
